US20250243171A1, “QUINAZOLINE COMPOUNDS FOR TREATMENT OF DISEASE” (Arthrosi Therapeutics, Inc., priority 2021, published 2025)

Columns and labels:
Test in all cases: EC50 assay: Ba/F3 stable cell proliferation (CCK-8, 72 h)
Type in all cases: cell-based
Ba/F3 stable cells [1] = molecular target: T1, Ba/F3 stable cells (Homo sapiens, UniProt P00533, T790M/L858R, cells depend on it); details: Ba/F3-EGFR L858R-T790M cells
T1 construct: EC50 Ba/F3-EGFR L858R-T790M; other: Ba/F3-EGFR L858R-T790M cells, 72 h, CCK-8
T1 sequence (P00533 whole entry T790M/L858R): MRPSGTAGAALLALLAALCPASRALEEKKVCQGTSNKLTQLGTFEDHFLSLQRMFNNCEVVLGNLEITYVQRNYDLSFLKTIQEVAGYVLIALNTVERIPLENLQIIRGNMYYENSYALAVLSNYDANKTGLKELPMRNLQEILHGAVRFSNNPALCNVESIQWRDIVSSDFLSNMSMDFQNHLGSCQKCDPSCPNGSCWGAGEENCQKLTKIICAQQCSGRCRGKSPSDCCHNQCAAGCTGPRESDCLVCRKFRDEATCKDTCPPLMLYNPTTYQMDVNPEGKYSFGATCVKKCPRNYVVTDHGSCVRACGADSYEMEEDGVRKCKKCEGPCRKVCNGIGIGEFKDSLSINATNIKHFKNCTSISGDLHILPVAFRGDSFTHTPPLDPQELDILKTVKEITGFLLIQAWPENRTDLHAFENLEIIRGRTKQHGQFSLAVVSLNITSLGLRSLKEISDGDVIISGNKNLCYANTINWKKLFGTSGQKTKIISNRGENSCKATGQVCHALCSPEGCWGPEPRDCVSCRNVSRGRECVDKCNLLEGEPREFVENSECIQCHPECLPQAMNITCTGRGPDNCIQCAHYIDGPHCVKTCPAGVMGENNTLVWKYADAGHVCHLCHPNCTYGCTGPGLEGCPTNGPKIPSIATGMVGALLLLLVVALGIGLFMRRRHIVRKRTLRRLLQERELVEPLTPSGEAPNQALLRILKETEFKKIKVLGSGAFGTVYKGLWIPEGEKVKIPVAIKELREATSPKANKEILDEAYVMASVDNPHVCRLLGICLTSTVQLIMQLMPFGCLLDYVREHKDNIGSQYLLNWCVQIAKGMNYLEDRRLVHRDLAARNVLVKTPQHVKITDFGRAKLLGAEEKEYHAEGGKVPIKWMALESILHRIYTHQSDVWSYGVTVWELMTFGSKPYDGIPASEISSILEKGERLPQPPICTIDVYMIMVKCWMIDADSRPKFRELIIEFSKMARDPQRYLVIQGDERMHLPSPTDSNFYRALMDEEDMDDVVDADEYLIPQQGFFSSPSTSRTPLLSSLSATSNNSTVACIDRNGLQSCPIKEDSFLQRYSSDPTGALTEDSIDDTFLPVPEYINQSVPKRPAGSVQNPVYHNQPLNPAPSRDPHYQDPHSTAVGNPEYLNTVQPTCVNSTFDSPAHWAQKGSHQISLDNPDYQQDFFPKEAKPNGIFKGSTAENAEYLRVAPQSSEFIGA
Outline: (§1)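 Ba/F3 stable cells were seeded at 4,000 cells/90 μL/well in 96-well plates and held 2 h at 37° C. in 5% CO2, then given 10 μL of serially titrated compound (0.1% DMSO final). After 72 h at 37° C., CCK-8 reagent was added for 4 hours and absorbance read at 450 nm to derive EC50.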

Ba/F3 stable cells [2] = molecular target: T2, Ba/F3 stable cells (Homo sapiens, UniProt P00533, INS763FQEA, cells depend on it); details: Ba/F3-EGFR A763-Y764insFQEA cells
T2 construct: EC50 Ba/F3-EGFR A763-Y764insFQEA; other: Ba/F3-EGFR A763-Y764insFQEA cells, 72 h, CCK-8
Outline: as §1

Ba/F3 stable cells [3] = molecular target: T3, Ba/F3 stable cells (Homo sapiens, UniProt P00533, DUP771-773, cells depend on it); details: Ba/F3-EGFR H773-V774insNPH cells
T3 construct: EC50 Ba/F3-EGFR H773-V774insNPH; other: Ba/F3-EGFR H773-V774insNPH cells, 72 h, CCK-8
T3 sequence (P00533 with tags, fused parts or gaps DUP771-773): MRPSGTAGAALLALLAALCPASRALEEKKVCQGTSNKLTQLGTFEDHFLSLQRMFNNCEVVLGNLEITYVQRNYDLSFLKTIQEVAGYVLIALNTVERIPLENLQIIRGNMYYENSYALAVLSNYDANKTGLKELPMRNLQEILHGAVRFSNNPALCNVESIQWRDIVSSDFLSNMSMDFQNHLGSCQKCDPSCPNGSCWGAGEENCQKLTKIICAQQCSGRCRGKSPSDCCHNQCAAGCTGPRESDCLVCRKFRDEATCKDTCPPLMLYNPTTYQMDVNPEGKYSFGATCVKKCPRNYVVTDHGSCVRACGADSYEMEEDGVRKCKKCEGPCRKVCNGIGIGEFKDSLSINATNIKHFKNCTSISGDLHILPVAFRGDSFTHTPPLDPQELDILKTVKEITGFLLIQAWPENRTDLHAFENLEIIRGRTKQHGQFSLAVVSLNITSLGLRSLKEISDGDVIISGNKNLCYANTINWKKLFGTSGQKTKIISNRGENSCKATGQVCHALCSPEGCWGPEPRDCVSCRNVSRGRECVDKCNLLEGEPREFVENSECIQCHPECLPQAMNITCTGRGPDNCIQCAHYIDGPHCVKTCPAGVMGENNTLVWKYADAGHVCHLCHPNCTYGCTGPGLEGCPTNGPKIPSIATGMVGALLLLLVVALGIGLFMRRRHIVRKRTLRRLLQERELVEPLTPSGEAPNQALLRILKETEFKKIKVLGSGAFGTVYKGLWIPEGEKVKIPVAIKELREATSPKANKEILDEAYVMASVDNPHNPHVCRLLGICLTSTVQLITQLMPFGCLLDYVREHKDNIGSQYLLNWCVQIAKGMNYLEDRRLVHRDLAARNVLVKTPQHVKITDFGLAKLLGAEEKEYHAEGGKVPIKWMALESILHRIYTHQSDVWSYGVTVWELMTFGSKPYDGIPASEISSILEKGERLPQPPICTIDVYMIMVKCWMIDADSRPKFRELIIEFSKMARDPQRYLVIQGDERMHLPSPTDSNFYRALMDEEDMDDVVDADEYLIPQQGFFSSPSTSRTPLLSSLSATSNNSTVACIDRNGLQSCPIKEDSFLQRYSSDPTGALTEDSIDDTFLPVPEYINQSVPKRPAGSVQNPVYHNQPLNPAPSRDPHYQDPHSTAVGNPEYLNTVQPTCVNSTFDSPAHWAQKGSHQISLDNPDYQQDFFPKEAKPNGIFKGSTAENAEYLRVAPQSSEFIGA
Outline: as §1

Ba/F3 stable cells [4] = molecular target: T4, Ba/F3 stable cells (Homo sapiens, UniProt P04626, DUP772-775, cells depend on it); details: Ba/F3-HER2 A775-G776insYVMA cells
T4 construct: EC50 Ba/F3-HER2 A775-G776insYVMA; other: Ba/F3-HER2 A775-G776insYVMA cells, 72 h, CCK-8
T4 sequence (P04626 with tags, fused parts or gaps DUP772-775): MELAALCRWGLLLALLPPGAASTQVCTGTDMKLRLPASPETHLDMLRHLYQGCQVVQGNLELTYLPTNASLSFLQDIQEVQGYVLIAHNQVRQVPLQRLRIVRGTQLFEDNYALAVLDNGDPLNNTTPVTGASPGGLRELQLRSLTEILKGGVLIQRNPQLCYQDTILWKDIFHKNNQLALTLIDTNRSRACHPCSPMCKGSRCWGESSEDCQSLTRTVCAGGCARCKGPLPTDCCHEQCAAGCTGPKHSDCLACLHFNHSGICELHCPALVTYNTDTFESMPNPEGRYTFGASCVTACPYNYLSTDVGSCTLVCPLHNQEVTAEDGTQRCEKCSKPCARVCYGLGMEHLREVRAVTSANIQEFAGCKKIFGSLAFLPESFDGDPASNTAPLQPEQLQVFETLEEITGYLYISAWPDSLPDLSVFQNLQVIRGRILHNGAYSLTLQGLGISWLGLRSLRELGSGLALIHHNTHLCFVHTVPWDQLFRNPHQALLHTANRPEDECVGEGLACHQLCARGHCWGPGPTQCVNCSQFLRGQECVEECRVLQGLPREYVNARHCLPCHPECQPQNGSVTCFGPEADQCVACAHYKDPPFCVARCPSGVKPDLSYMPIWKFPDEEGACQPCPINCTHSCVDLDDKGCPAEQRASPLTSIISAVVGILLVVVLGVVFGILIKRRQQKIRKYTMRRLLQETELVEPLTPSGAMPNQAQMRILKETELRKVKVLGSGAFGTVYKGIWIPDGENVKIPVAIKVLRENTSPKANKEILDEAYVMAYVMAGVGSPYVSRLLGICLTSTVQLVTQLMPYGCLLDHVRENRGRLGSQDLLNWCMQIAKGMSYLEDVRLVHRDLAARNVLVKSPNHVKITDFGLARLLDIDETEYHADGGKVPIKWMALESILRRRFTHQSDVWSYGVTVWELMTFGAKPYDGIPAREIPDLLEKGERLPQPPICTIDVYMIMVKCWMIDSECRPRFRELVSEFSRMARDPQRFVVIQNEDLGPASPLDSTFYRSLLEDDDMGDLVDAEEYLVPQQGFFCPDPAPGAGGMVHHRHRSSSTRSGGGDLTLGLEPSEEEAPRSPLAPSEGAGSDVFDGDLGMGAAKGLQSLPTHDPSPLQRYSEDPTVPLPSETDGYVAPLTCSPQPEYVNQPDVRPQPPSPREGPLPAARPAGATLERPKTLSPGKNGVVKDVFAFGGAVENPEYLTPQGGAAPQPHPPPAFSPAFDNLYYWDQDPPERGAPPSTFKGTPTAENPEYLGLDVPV
Outline: as §1

Ba/F3 stable cells [5] = molecular target: T5, Ba/F3 stable cells (Homo sapiens, UniProt P00533, DUP767-769, cells depend on it); details: Ba/F3-EGFR V769-D770insASV cells
T5 construct: EC50 Ba/F3-EGFR V769-D770insASV; other: Ba/F3-EGFR V769-D770insASV cells, 72 h, CCK-8
Outline: as §1

Ba/F3 stable cells [6] = molecular target: T6, Ba/F3 stable cells (Homo sapiens, UniProt P00533, DUP768-770, cells depend on it); details: Ba/F3-EGFR D770-N771insSVD cells
T6 construct: EC50 Ba/F3-EGFR D770-N771insSVD; other: Ba/F3-EGFR D770-N771insSVD cells, 72 h, CCK-8
T6 sequence (P00533 with tags, fused parts or gaps DUP768-770): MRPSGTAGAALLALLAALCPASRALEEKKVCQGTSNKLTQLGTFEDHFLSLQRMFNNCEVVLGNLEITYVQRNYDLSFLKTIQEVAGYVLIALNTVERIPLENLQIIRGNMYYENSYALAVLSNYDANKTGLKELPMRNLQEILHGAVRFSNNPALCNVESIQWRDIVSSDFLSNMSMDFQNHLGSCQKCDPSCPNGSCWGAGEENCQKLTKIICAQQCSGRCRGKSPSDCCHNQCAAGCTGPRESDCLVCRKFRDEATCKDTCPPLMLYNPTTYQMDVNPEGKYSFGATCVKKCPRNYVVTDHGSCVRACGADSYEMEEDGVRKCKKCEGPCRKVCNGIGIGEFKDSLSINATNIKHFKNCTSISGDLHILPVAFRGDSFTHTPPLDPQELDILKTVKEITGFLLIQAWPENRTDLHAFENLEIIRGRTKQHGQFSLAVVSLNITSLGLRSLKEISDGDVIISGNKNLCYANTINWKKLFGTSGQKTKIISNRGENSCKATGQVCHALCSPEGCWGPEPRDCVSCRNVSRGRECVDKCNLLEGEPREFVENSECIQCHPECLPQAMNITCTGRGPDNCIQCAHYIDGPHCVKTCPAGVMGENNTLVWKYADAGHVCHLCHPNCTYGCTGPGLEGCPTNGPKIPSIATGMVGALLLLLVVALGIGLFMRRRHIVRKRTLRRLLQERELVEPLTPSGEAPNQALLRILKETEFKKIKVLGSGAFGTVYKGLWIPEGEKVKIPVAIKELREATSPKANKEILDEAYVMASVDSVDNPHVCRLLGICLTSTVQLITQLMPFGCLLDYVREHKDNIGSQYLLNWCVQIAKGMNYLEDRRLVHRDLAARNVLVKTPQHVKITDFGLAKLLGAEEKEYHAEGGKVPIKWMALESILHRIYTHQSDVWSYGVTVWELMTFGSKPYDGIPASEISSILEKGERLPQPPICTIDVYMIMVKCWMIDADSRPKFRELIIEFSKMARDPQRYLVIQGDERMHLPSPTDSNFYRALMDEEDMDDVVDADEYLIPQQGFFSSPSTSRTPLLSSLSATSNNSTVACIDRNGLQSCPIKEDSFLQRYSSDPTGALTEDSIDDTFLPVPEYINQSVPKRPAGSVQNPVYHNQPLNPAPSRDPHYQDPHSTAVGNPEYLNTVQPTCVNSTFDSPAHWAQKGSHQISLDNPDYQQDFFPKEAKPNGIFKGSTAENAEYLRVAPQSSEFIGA
Outline: as §1

EC50 (Ba/F3 stable cells [1]) [nM] | EC50 (Ba/F3 stable cells [2]) [nM] | EC50 (Ba/F3 stable cells [3]) [nM] | EC50 (Ba/F3 stable cells [4]) [nM] | EC50 (Ba/F3 stable cells [5]) [nM] | EC50 (Ba/F3 stable cells [6]) [nM] | Structure (SMILES)
> 1000 | ≤ 200 | 200 to 1000 | > 1000 | ≤ 200 | > 1000 | C=CC(=O)N[C@H]1CC[C@@H](Oc2cc3c(Nc4ccc(Cl)c(Cl)c4F)ncnc3cc2OC)CC1 [Compound 90, N-((1s,4s)-4-((4-((3,4-dichloro-2-fluorophenyl)amino)-7-methoxyquinazolin-6-yl)oxy)cyclohexyl)acrylamide]
> 1000 | ≤ 200 | 200 to 1000 | 200 to 1000 | 200 to 1000 | 200 to 1000 | C=CC(=O)N[C@H]1CC[C@H](Oc2cc3c(Nc4ccc(Cl)c(Cl)c4F)ncnc3cc2OC)CC1 [Compound 91, N-((1r,4r)-4-((4-((3,4-dichloro-2-fluorophenyl)amino)-7-methoxyquinazolin-6-yl)oxy)cyclohexyl)acrylamide]
200 to 1000 | ≤ 200 | ≤ 200 | ≤ 200 | ≤ 200 | 200 to 1000 | C=CC(=O)NC1CC(Nc2cc3c(Nc4ccc(Cl)c(Cl)c4F)ncnc3cc2OC)C1 (stereo not drawn) [Compound 92, N-(3-((4-((3,4-dichloro-2-fluorophenyl)amino)-7-methoxyquinazolin-6-yl)amino)cyclobutyl)acrylamide]
> 1000 | ≤ 200 | > 1000 | > 1000 | > 1000 | > 1000 | C=CC(=O)N1CCC(Oc2cc3c(C(=O)NCc4ccc(F)cc4)ncnc3cc2OC)CC1 [Compound 94, 6-((1-acryloylpiperidin-4-yl)oxy)-N-(4-fluorobenzyl)-7-methoxyquinazoline-4-carboxamide]
> 1000 | > 1000 | > 1000 | > 1000 | > 1000 | > 1000 | C=CC(=O)N1CCC(Oc2cc3c(C(=O)N[C@H](C)c4ccc(F)cc4)ncnc3cc2OC)CC1 [Compound 95, (R)-6-((1-acryloylpiperidin-4-yl)oxy)-N-(1-(4-fluorophenyl)ethyl)-7-methoxyquinazoline-4-carboxamide]
> 1000 | 200 to 1000 | > 1000 | > 1000 | > 1000 | > 1000 | C=CC(=O)N1CCC(Oc2cc3c(NC(=O)c4ccc(F)cc4)ncnc3cc2OC)CC1 [Compound 98, N-(6-((1-acryloylpiperidin-4-yl)oxy)-7-methoxyquinazolin-4-yl)-4-fluorobenzamide]
≤ 200 | ≤ 200 | ≤ 200 | ≤ 200 | ≤ 200 | 200 to 1000 | C=CC(=O)N[C@H]1C[C@@H](Oc2cc3c(Nc4ccc(Cl)c(Cl)c4F)ncnc3cc2O[C@H]2CCOC2)C1 [Compound 99, N-((1R,3s)-3-((4-((3,4-dichloro-2-fluorophenyl)amino)-7-(((S)-tetrahydrofuran-3-yl)oxy)quinazolin-6-yl)oxy)cyclobutyl)acrylamide]
200 to 1000 | ≤ 200 | 200 to 1000 | 200 to 1000 | ≤ 200 | 200 to 1000 | C=CC(=O)N[C@H]1C[C@@H](Oc2cc3c(Nc4ccc(Cl)c(Cl)c4F)ncnc3cc2OCCO)C1 [Compound 100, N-((1s,3s)-3-((4-((3,4-dichloro-2-fluorophenyl)amino)-7-(2-hydroxyethoxy)quinazolin-6-yl)oxy)cyclobutyl)acrylamide]
> 1000 | ≤ 200 | > 1000 | > 1000 | 200 to 1000 | > 1000 | C=CC(=O)N[C@H]1C[C@@H](Oc2cc3c(Nc4ccc(Cl)c(Cl)c4F)ncnc3cc2OCCN(C)C)C1 [Compound 101, N-((1s,3s)-3-((4-((3,4-dichloro-2-fluorophenyl)amino)-7-(2-(dimethylamino)ethoxy)quinazolin-6-yl)oxy)cyclobutyl)acrylamide]
≤ 200 | ≤ 200 | ≤ 200 | ≤ 200 | ≤ 200 | ≤ 200 | [2H]C([2H])([2H])Oc1cc2ncnc(Nc3ccc(Cl)c(Cl)c3F)c2cc1O[C@H]1C[C@@H](NC(=O)C=C)C1 [Compound 102, N-((1s,3s)-3-((4-((3,4-dichloro-2-fluorophenyl)amino)-7-(methoxy-d3)quinazolin-6-yl)oxy)cyclobutyl)acrylamide]
≤ 200 | ≤ 200 | ≤ 200 | ≤ 200 | ≤ 200 | ≤ 200 | C=CC(=O)N[C@H]1C[C@@H](Oc2cc3c(Nc4ccc(Cl)c(Cl)c4F)ncnc3cc2NC)C1 [Compound 103, N-((1s,3s)-3-((4-((3,4-dichloro-2-fluorophenyl)amino)-7-(methylamino)quinazolin-6-yl)oxy)cyclobutyl)acrylamide]

The next lines start with the compound.

Structure (SMILES) | EC50 (Ba/F3 stable cells [1]) [nM] | EC50 (Ba/F3 stable cells [2]) [nM] | EC50 (Ba/F3 stable cells [3]) [nM] | EC50 (Ba/F3 stable cells [4]) [nM] | EC50 (Ba/F3 stable cells [5]) [nM] | EC50 (Ba/F3 stable cells [6]) [nM]
C=CC(=O)N[C@H]1C[C@@H](Oc2cc3c(Nc4cccc5ccccc45)ncnc3cc2OC)C1 [Compound 83, N-((1s,3s)-3-((7-methoxy-4-(naphthalen-1-ylamino)quinazolin-6-yl)oxy)cyclobutyl)acrylamide] | 200 to 1000 | ≤ 200 | ≤ 200 | 200 to 1000 | ≤ 200 | 200 to 1000
C=CC(=O)NC1CC(Oc2cc3c(NCc4ccc(F)cc4)ncnc3cc2OC)C1 (stereo not drawn) [Compound 84, N-(3-((4-((4-fluorobenzyl)amino)-7-methoxyquinazolin-6-yl)oxy)cyclobutyl)acrylamide] | > 1000 | ≤ 200 | > 1000 | > 1000 | 200 to 1000 | > 1000
C=CC(=O)NC1CC(Oc2cc3c(Nc4ccc(F)c(Cl)c4)ncnc3cc2OC)C1 (stereo not drawn) [Compound 85, N-(3-((4-((3-chloro-4-fluorophenyl)amino)-7-methoxyquinazolin-6-yl)oxy)cyclobutyl)acrylamide] | > 1000 | ≤ 200 | > 1000 | > 1000 | 200 to 1000 | > 1000
C=CC(=O)N[C@H]1C[C@H](Oc2cc3c(Nc4ccc(C#N)c(Cl)c4)ncnc3cc2OC)C1 [Compound 86, N-(3-((4-((3-chloro-4-cyanophenyl)amino)-7-methoxyquinazolin-6-yl)oxy)cyclobutyl)acrylamide] | > 1000 | 200 to 1000 | > 1000 | > 1000 | > 1000 | > 1000
C=CC(=O)NC1CC(Oc2cc3c(Nc4ccc(F)c(C#N)c4)ncnc3cc2OC)C1 (stereo not drawn) [Compound 87, N-(3-((4-((3-cyano-4-fluorophenyl)amino)-7-methoxyquinazolin-6-yl)oxy)cyclobutyl)acrylamide] | > 1000 | 200 to 1000 | > 1000 | > 1000 | > 1000 | > 1000
C=CC(=O)NC1CC(Oc2cc3c(Nc4cccc5c4CCC5)ncnc3cc2OC)C1 (stereo not drawn) [Compound 88, N-(3-((4-((2,3-dihydro-1H-inden-4-yl)amino)-7-methoxyquinazolin-6-yl)oxy)cyclobutyl)acrylamide] | > 1000 | 200 to 1000 | > 1000 | > 1000 | > 1000 | > 1000
C=CC(=O)NC1CC(Oc2cc3c(Nc4cccc5c4CCCC5)ncnc3cc2OC)C1 (stereo not drawn) [Compound 89, N-(3-((7-methoxy-4-((5,6,7,8-tetrahydronaphthalen-1-yl)amino)quinazolin-6-yl)oxy)cyclobutyl)acrylamide] | > 1000 | 200 to 1000 | > 1000 | > 1000 | > 1000 | > 1000
C=CC(=O)NC1CC(Oc2cc3c(C(=O)NCc4ccc(F)cc4)ncnc3cc2OC)C1 (stereo not drawn) [Compound 96, 6-(3-acrylamidocyclobutoxy)-N-(4-fluorobenzyl)-7-methoxyquinazoline-4-carboxamide] | > 1000 | > 1000 | > 1000 | > 1000 | > 1000 | > 1000
C=CC(=O)N[C@H]1C[C@@H](Oc2cc3c(C(=O)N[C@H](C)c4ccc(F)cc4)ncnc3cc2OC)C1 [Compound 97, 6-((1s,3S)-3-acrylamidocyclobutoxy)-N-((R)-1-(4-fluorophenyl)ethyl)-7-methoxyquinazoline-4-carboxamide] | > 1000 | > 1000 | > 1000 | > 1000 | > 1000 | > 1000
